In patent US10343991B2, “C5, C6 substituted and/or fused oxindoles as anti-cancer agents and process for preparation thereof” (Council of Scientific & Industrial Research, priority 2016, dated 2019):

Tests used:
[1] = system: VEGF tyrosin kinase (VEGFR); assay: VEGFR activity, phosphotyrosine (PY) cell-based ELISA; settings: 10 μM, 60 min pretreatment, VEGF stimulation
Method: Briefly, cells at 60-75% confluence were placed in serum-free medium for 18 h to reduce the background of phosphorylation. Cells were then pretreated for 60 min with 2b, 3d, 3e, 3g, 3h, 3i, 3j and 3k compounds at 10 μM concentration followed by an optimized dose of purified growth factor (VEGF). The reaction was stopped, and cells were permeabilized by quickly removing the media from the cells and adding ice-cold Tris-buffered saline (TBS) containing 0.05% triton X-100, protease inhibitor cocktail, and tyrosine phosphatase inhibitor cocktail (both from Sigma Chemical). The TBS solution was then removed, and cells were fixed to the plate by heat and further incubation in 70% ethanol. Cells were further exposed to block (TBS with 1% BSA) and washed, and then a horseradish peroxidase (HRP)-conjugated phosphotyrosine antibody was added. The antibody was removed; cells were washed again and exposed to an enhanced luminol ELISA substrate, and light emission was measured using a plate reader. The known RTK-specific kinase inhibitor (Sunitinib) was used as positive control for kinase inhibition.

THP1 cells [2] = assay: Trypan blue assay, cell viability; assay type: cell-based; settings: Homo sapiens, THP-1, 48 h, average of three experiments
Method: (§1) In order to determine the anticancer potency, the synthesized oxindole derivatives were evaluated for anti-cancer activity various different human cancer cell lines, Leukemic Cancer (THP1), human breast cancer (MDA-MB-231 and MCF-7), human cervix carcinoma cells (HeLa), prostate cancer (DU-145) cellS by using standard Trypan blue and SRB assays. The preliminary anticancer activity for all the synthesized compounds was done at 10 μM concentration and cell inhibition was determined. […] The experiment was repeated thrice and the average values were taken.
The assay was carried out in a 24 well flat-bottomed microtiter tissue culture plate. THP1 cells were seeded in the plates with a density of 4×10^4 cells/well (counted by tryphan blue exclusion dye method). Compounds were added to obtain a concentration of 10 μM. Sunitinib was used as positive control. Plates were incubated for 48 h at 37° C. in a humidified incubator with 5% CO2. At the end of the treatments, cells (THP1) were resuspended in 0.4% trypan blue and percent cell viability was counted using countess cell chamber (Life Technologies).

HeLa cells = assay: SRB assay, cell viability; assay type: cell-based; settings: Homo sapiens, 48 h, average of three experiments
Method: as §1
(§2) The assay was carried out in a 24 well flat-bottomed microtiter tissue culture plate. Cells were seeded in the plates with a density of 4×10^4 cells/well (counted by tryphan blue exclusion dye method). After 24 hours media was replaced with fresh media and then compounds were added to obtain a concentrations of 10 μM. Sunitinib was used as positive control. Plates were incubated for 48 h at 37° C. in a humidified incubator with 5% CO2. After 48 hours without removing the cell culture supernatant, 500 μl of cold 10% (wt/vol) TCA was added to each well, and the plates were incubated at 4° C. for 1 h. The plates were washed for four times with water then rinsed with water several times to remove TCA, serum, proteins and excess water was removed using paper towels and air dried. 100 μl of 0.4% (wt/vol in 1% acetic acid) SRB solution was added to each well. Plates were left at room temperature for 30 min and then the plates were quickly rinsed for four times with 1% (vol/vol) acetic acid to remove unbound dye were and then air dried until no moisture was visible. 100 μl of 10 mM Tris base solution (pH 10.5) was added to each well and shake for 5 min to solubilize the protein-bound dye. Optical density was measured at 564 nm in a micro plate reader.

MCF-7 cells = assay: SRB assay, cell viability; assay type: cell-based; settings: Homo sapiens, MCF7, 48 h, average of three experiments
Method: as §1, §2

MDA-MB-231 cells = assay: SRB assay, cell viability; assay type: cell-based; settings: Homo sapiens, 48 h, average of three experiments
Method: as §1, §2

DU-145 cells = assay: SRB assay, cell viability; assay type: cell-based; settings: Homo sapiens, 48 h, average of three experiments, read-out: DU145 Cell Viability at 10 μM
Method: as §1, §2

THP1 cells [3] = assay type: cell-based, human; settings: THP-1 cells, 10 μM, 24 h; untreated cells 68.3%
Method: To understand the anticancer activity mechanism of the synthesized oxindole derivatives, we analysed the cell cycle alteration phase distribution of the cells by treating THP1 cells with oxindole derivatives at 10 μM, for 24 h and analyzed by flow cytometry. Treatment of THP-1 cells with compounds 2b, 3d, 3e, 3g, 3h, 3i, 3j and 3k caused an accumulation of 98.5%, 94.3%, 96.7%, 97%, 98%, 83%, 93.5%, 98.1% cells in the G0/G1 phase respectively as compared to 68.3% in untreated cells and 99.5% in Sunitinib treated cells. […] (Fig. x and Table .y).
The THP1 cells were treated with the active compounds at […] and incubated for about 24 h. The cells were fixed in ice cold ethanol solvent at 4° C. for about 30 minutes. The ethanol was removed and cells were treated with 1 mL of DNA staining solution (2 mg of RNase and 0.2 mg of propidium iodide (PI)) for 30 minutes. The DNA content was measured by flow cytometry (BD FACS C anto II). Results were analysed using FCS express 4 plus software.

melting point [°C]	SMILES	inhibitory activity of VEGF tyrosin kinase activity [1]	viability at 10 µM (THP1 cells [2]) [%]	viability at 10 µM (HeLa cells) [%]	viability at 10 µM (MCF-7 cells) [%]	viability at 10 µM (MDA-MB-231 cells) [%]	viability at 10 µM (DU-145 cells) [%]	accumulation of cells in the G0/G1 phase (THP1 cells [3]) [%]
165 to 168	Cc1ccsc1/C=C1\C(=O)Nc2cc3oc(Cc4ccccc4)c(-c4ccccc4)c3cc21 [Compound 3i, (Z)-2-benzyl-5-((3-methylthiophen-2-yl)methylene)-3-phenyl-5H-furo[3,2-f]indol-6(7H)-one]	inhibitory activity	41.2	42.6	31.4	43.2	52	83
186 to 188	Cc1cc(C)c(/C=C2\C(=O)Nc3cc4oc(Cc5ccccc5)c(-c5ccccc5)c4cc32)[nH]1 [Compound 3h, (Z)-2-benzyl-5-((3,5-dimethyl-1H-pyrrol-2-yl)methylene)-3-phenyl-5H-furo[3,2-f]indol-6(7H)-one]	inhibitory activity	36.2	40.3	40.5	41.3	58.6	98
